Reference: ChEMBL document CHEMBL3832046, “DailyMed|setid=1da7847b-16e4-4bf1-957f-3894d023b339 | VIAGRA - sildenafil citrate tablet, film coated|PD-Rx Pharmaceuticals, Inc”

Legend:
[1] = (§1) Pharmacokinetic parameters for Sildernafil following oral administration of Sildernafil citrate tablets (Viagra).; format: ADME, organism-based; details: human, in vivo, dosed compound id 36, dosed compound name SILDERNAFIL CITRATE, tissue Plasma
Homo sapiens = experiment: as §1; format: ADME, organism-based; details: in vivo, po, dosed compound id 36, dosed compound name SILDERNAFIL CITRATE, tissue Plasma

Question: With `CCCc1nn(C)c2c(=O)[nH]c(-c3cc(S(=O)(=O)N4CCN(C)CC4)ccc3OCC)nc12.O=C(O)CC(O)(CC(=O)O)C(=O)O` [SILDENAFIL CITRATE] as the compound, how does the Tmax ([1]; dietary status Fasting) read?
Answer: The Tmax was 1 h.

Question: And the bioavailability [1]?
Answer: Its bioavailability is 41%.

Question: What about the Vss (Homo sapiens) of the same compound?
Answer: Its Vss is 105 L.
